Experiment [1] relates to Sprague-Dawley rats. As to the kind of experiment: Rat Chung model (L5 spinal nerve ligation), paw withdrawal threshold with von Frey hairs. Format: in vivo. The method, then:
Adult male Sprague-Dawley rats, weighing 200-230 g at the time of surgery, were used. They were housed in groups of 4 in an air-conditioned room on a 12 h light/dark cycle. Food and water were available ad libitu. The animals were allowed to acclimatize to the experimental environment for three days by leaving them on a lifted metal mesh for at least 40 min. The baseline paw withdrawal threshold (PWT) was examined using a series of graduated von Frey hairs for 3 consecutive days before surgery and re-assessed on the 7th day after surgery and on the 11th to 14th day before drug dosing. The rat Chung model was prepared as described by Kim and Chung (1992). The rat was anaesthetized with 5% isoflurane mixed with oxygen (2 L per min) followed by an i.p. injection of sodium pentobarbitone at 50 mg/kg. The back was shaved and sterilized with 75% ethanol. The animal was placed in a prone position and a para-medial incision was made on the skin covering L4-6 level. The L5 spinal nerve was carefully isolated and tightly ligated with 6/0 silk suture. The wound was then closed in layers after a complete hemostasis. A single dose of antibiotics (Amoxipen 15 mg/rat, ip) was routinely given for prevention of infection after surgery. The animals were placed in a temperature controlled recovery chamber until fully awake before being returned to the home cage. The animals were placed in individual Perspex boxes on a raised metal mesh for at least 40 min before the test. Starting with the filament of lowest force, each filament was applied perpendicularly to the center of the ventral surface of the paw until slightly bent for 6 seconds. If the animal withdrew or lifted the paw upon stimulation, then a hair with force immediately lower than that tested was used. If no response was observed, then a hair with force immediately higher was tested. The lowest amount of force required to induce reliable responses (positive in 3 out of 5 trials) was recorded as the value of PWT. Only those animals with significant allodynia (PWT≦3.5 g) were selected for drug dosing experiments. The rats in a neuropathic pain state were randomly divided into experimental groups: Vehicle group and 1 group had 8 rats and the gabapentin group had 9 rats. The drug test was carried out 12 to 14 days after surgery. Isotonic 50 mM phosphate buffer (PB), dosed orally at 3 mL/kg, served as the vehicle control. Gabapentin was dissolved in normal saline and given orally at 100 mg/kg. […] The PWT was assessed at 1, 3, 6 and 24 h following drug or vehicle administration. The animals were returned to their home cage for a break (about 30 min) between two neighboring testing time points. One-way analysis of variance (ANOVA) (SPSS software) was used for statistical analysis to compare different groups on the same time points. Paired Student -t test was used to compare different time points in the same group. The significance level was set at P<0.05.

Experiment [2] concerns the target Human DAAO (Homo sapiens, UniProt P14920). As to the kind of experiment: D-Amino Acid Oxidase enzyme assay (D-serine, horseradish peroxidase/Amplex Red coupled). Format: biochemical. Particulars: D-serine 5 mM, pH 7.4; read-out: Human DAAO Inhibition [IC50].
Procedure: This coupled reaction uses the enzyme substrate Amplex Red (Molecular Probes), which is converted to the fluorescent reaction product, resorufin (excitation 530-560 nm; emission ˜590 nm). Although DAAO has a higher pH optimum, all reagents were prepared in 50 mM sodium phosphate buffer at pH 7.4 and inhibition curves were generated at this pH.
The reactions were initiated by addition of DAAO enzyme while the fluorescence was monitored. […] Inhibition curves were generated in the presence of varying concentrations of the inhibitor and IC50 values were calculated for each inhibitor.

Human DAAO, sequence (P14920 whole entry): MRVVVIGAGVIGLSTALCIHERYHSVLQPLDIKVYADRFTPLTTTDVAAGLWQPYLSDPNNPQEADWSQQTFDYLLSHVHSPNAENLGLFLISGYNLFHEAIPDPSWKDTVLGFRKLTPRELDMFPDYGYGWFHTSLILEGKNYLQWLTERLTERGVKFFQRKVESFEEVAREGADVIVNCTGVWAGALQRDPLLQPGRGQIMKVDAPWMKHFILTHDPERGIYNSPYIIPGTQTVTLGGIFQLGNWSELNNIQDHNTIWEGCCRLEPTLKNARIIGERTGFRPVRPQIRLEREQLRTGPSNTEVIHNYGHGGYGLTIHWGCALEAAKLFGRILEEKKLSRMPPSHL

Take `O=C(O)c1cc2occc2[nH]1` [Compound 11, 4H-Furo[3,2-b]pyrrole-5-carboxylic acid]: the “Effect on paw withdrawal threshold (PWT)” value in experiment [1] (oral dose of 10 mg/kg) was “significantly elevated the PWT”.
On to `O=C(O)c1cc2occ(CCc3ccccc3)c2[nH]1` [Compound 17, 3-phenethyl-4H-furo[3,2-b]pyrrole-5-carboxylic acid], for which the IC50 in experiment [2] was less than 1 µM.
As to `O=C(O)c1cc2oc(Cc3ccccc3)cc2[nH]1` [Compound 24, 2-benzyl-4H-furo[3,2-b]pyrrole-5-carboxylic acid], the IC50 in experiment [2] is less than 100 µM.
Turning to `O=C(O)c1cc2occ(Cc3ccccc3)c2[nH]1` [Compound 26, 3-benzyl-4H-furo[3,2-b]pyrrole-5-carboxylic acid], the concentration for half-maximal inhibition (IC50) in experiment [2] is less than 100 µM.
On the same count and under the same terms, as for `C=Cc1coc2cc(C(=O)O)[nH]c12` [Compound 32, 3-vinyl-4H-furo[3,2-b]pyrrole-5-carboxylic acid], the figure is less than 0.1 µM.
On the same count and under the same terms, as for `C/C=C\c1coc2cc(C(=O)O)[nH]c12` [Compound 46, (Z)-3-(prop-1-enyl)-4H-furo[3,2-b]pyrrole-5-carboxylic acid], the figure is less than 100 µM; as for `O=C(O)c1cc2occ(/C=C/c3ccccc3)c2[nH]1` [Compound 48, (E)-3-Styryl-4H-furo[3,2-b]pyrrole-5-carboxylic acid], less than 100 µM.
Turning to `NCC1(CC(=O)O)CCCCC1` [Gabapentin], in experiment [1] (orally dosed at 100 mg/kg), the “Course of the effect on PWT after the peak” value was “gradually declined from 6 hours onwards”, the “Time at which the effect on PWT commenced after dosing” value is listed as “first hour” and the “Time of peak effect on PWT after dosing” value is 3 h. Besides, the “Effect on paw withdrawal threshold (PWT)” value in experiment [1] (orally dosed at 100 mg/kg, positive control) was “significantly increased the PWT”.

A word on the IC50: it is the concentration needed to halve the response being measured.

For the origin of these results see patent publication US7579370B2, “Fused heterocycles” (Sepracor Inc., priority 2006, dated 2009).
